Measurements taken from US10548829B2, “Oral care compositions and methods of use” (priority 2016, dated 2020).
Read-outs that look alike come from different tables or passages of the source.

Assays:
[1] = Growth inhibition (OD610), mixed chemostat culture; assay type: cell-based, A. viscosus, L. casei, S. oralis, F. nucleatum, V. parvula; conditions: Mixed species incubated in 37° C.
Experimental: (§1) Single species of Streptococcus gordonii (S. gordonii, S.g) strain V288 (ATCC #35105), Streptococcus sobrinus (S. sobrinus, S.$) strain SL1[CCM 6070, CNCTC 9/89] (ATCC #33478), or Aggregatibacter actinomycetemcomitans were analyzed. Also, a mixed culture containing Actinomyces viscosus (A. viscosus, A.v) strain (ATCC, #43146), Lactobacillus casei (L. casei, L.c) strain (ATCC #334), Streptococcus oralis (S. oralis, S. o) strain (ATCC #35037), Fusobacterium nucleatum (F. nucleatum, F. n) strain (ATCC #10953), and Veilonella parvula (V. parvula, V. p) strain (ATCC #17745) was also analyzed for growth inhibition/toxicity activity. Bacteria were cultured overnight in approximately 20 ml of BHI broth (BD, cat #237500) or maintained in a specialized complex modified BHI II medium in a continuous culture chemostat at 37° C. respectively. The following day, the OD610 were determined and solutions diluted to an OD610 of 0.2 or 0.1 respectively for the assay.
(§2) Triclosan (positive control) was prepared as a 10% stock in 100% EtOH and 3 fold serial dilutions were performed in 100% EtOH. An appropriate amount of the diluted samples was then transferred into a 96 well clear plate such that the resulting final concentration of the test samples ranged from either a 2 mM or 4 mM (highest concentration) to 0.0078 mM or 0.0156 mM (lowest concentration respectively) in 2% DMSO in 100 μl media per well. Triclosan (TCN) ranged from 0.01% to 1.67e-6% in 1% EtOH. For Zinc acetate, in order to mimic the 2:1 molar ratio (ligand:Zinc) in the Naringin:Zinc complex, the final concentration ranged from 0.7 mM to 0.0027 mM for samples with 2 mM as the highest concentration and 1.33 mM to […] for samples with 4 mM as the highest concentration in 2% DMSO. Next, 100 μl of bacterial culture at OD610 0.2 were introduced to the wells with the test samples. The wells were thoroughly mixed and incubated at 37° C. overnight. The plates were read using an Envision plate reader (PerkinElmer, Waltham, Mass.) at 610 nm.
(§3) The IC50 for the complex, Product 5, was determined for Streptococcus gordonii (S. gordonii), Streptococcus sobrinus (S. sobrinus), Aggregatibacter actinomycetemcomitans (A. actinomycetemcomitans), and also for the mixed bacterial culture. […] Triclosan (TCN) was included as a positive control for bacterial inhibition.
(§4) Antimicrobial characterization was also performed on mixed culture solutions having at least five microbial species present. A mixed culture containing Actinomyces viscosus (A. viscosus, A.v) (ATCC, #43146), Lactobacillus casei (L. casei, L.c) (ATCC #334), Streptococcus oralis (S. oralis, S.o) (ATCC #35037), Fusobacterium nucleatum (F. nucleatum, F.n) (ATCC #10953) and Veilonella parvula (V. parvula, V.p) (ATCC #17745) was maintained in a specialized complex medium (Modified BHI II Medium) in a continuous culture chemostat at 37° C. Approximately 10 ml of the culture was removed and the OD610 was determined. The assay was performed using cultures at two concentrations; 0.03 and 0.1 at OD610. […] Triclosan (positive control) was prepared as a 10% stock in 100% EtOH and 3 fold serial dilutions were performed in 100% EtOH. […] For Zinc Acetate, in order to mimic the 2:1 ratio (ligand:Zinc) composition as in the complex, the final concentration range from 0.7 mM to 0.0027 mM in 2% DMSO was used instead.
(§5) A 100 μl of bacterial culture at chosen OD610 (0.03 or 0.1) was introduced into the wells with the test samples. The wells were thoroughly mixed and plates incubated overnight in a 37° C. incubator with or without 5% CO2. After approximately 12-13 hours of treatment, the plate was read using Envision plate reader (Serial #1040984), absorbance at 610 nm. The % inhibition relative to control was determined as described for previously described antimicrobial protocols, supra.

[2] = system: mixed culture containing Actinomyces viscosus, Lactobacillus casei, Streptococcus oralis, Fusobacterium nucleatum and Veilonella parvula; assay: Growth inhibition (OD610), mixed chemostat culture; assay type: cell-based, A. viscosus, L. casei, S. oralis, F. nucleatum, V. parvula; conditions: for % Inhibition: Mixed species incubated in 37° C., 0.0875 mM
Experimental: as §1, §2, §3, §4, §5

Row | SMILES | inhibition at 250 µM ([1]; 5% CO2 (anaerobic), 0.25 mM (combination 0.1625 mM + 0.0875 mM, 0.25 mM total)) | inhibition at 250 µM ([1]; Air (aerobic), 0.25 mM (combination 0.25 mM total)) | IC50 ([2]; Mixed Species (aerobic)) | IC50 ([2]; Mixed Species (anaerobic), read-out: IC50) | % Inhibition ([2]; 5% CO2 (anaerobic)) | % Inhibition ([2]; Air (aerobic))
1 | C[C@@H]1O[C@@H](O[C@H]2[C@H](Oc3cc(O)c4c(c3)O[C@H](c3ccc(O)cc3)CC4=O)O[C@H](CO)[C@@H](O)[C@@H]2O)[C@H](O)[C@H](O)[C@H]1O [Naringin] | 3.51 ± 1.53% | 3.1 ± 3.31% | – | – | – | –
2 | CC(=O)[O-].CC(=O)[O-].[Zn+2] [Zinc Acetate alone, Zinc (II) Acetate] | – | – | Ambiguous | 250 µM | −1.46 ± 0.0% | 18.07 ± 2.65%
